Patent US8912144B2, “Method for treating stroke via administration of NEP1-40 and inosine” (Children's Medical Center Corporation, priority 2003, dated 2014)
Entries after “also recorded” stand apart in the source; their conditions may differ.

Key:
Assay type in all cases: in vivo, rat
activated caspase-3 = assay: Activated caspase-3 profiles at the periphery of the stroke; settings: standardized area on the periphery of the stroke
Description: A photothrombotic stroke model was used to generate unilateral ischemic lesions centered in the forelimb motor area of the cortex. The infarct area was determined using stereotaxic coordinates and was verified by histological analysis. Lesions were restricted to one hemisphere and included the caudal forelimb area of the primary motor cortex along with varying amounts of adjacent cortex (FIG. 10A and FIGS. 15 and 16). Lesion size varied among animals in each group, but there were no systematic between-group differences (lesion size [in pixels]=85.4±8.2 d [mean±S.E.M] for the saline-treated group and 81.1±8.6 for the inosine-treated group: difference not significant). […] This conclusion is further supported by the absence of any difference between inosine- and saline-treated cases in the number and size of profiles expressing activated caspase-3, as quantified focally in a standardized area on the periphery of the stroke (Caspase-3 profiles in saline-treated group=11.8±1.1, and in inosine treated group=11.9±1.5).

[1] = test system: sensorimotor cortex infarct; assay: Lesion size / stroke volume after photothrombotic focal ischemia; settings: 4 weeks treatment after focal ischemia
Description: All procedures were carried out in accordance with NIH Guidelines with the approval of Children's Hospital Animal Care and Use Committee. Unilateral in-farcts were induced in the sensorimotor cortex of adult Sprague-Dawley rats (275-300 g; Charles River Laboratories, Wilmington, Mass.) using the photothrombotic model of focal ischemia (Markgraf et al., 1993). Briefly, rats were anesthetized with a combination of ketamine (75 mg/kg) and Domitor (medetomidine; 0.5 mg/kg) and a 15 mm skin incision was made at the midline rostral to the posterior suture. A craniotomy was performed over the sensorimotor cortex using a hand-held drill to open a window that spanned medio-laterally between the sagittal sinus and temporal ridge, and rostro-caudally between Bregma +2.5 mm and Bregma −3.5 mm. […]
Sections through the telencephalon were cut at 10 μm, mounted on slides, and stained with Crystal Violet to determine the extent of the lesions. […] The area of the injured and uninjured hemisphere of each section was determined using NIH Image-J software. Lesion area was determined by subtracting the area of tissue remaining in the injured hemisphere from that in the uninjured hemisphere in sections spaced 250 μm apart spanning the full rostrocaudal extent of the lesion. […]

[2] = Skilled forelimb-reaching (food pellet retrieval) task after stroke; settings: for food pellet retrieval with impaired paw, % of baseline: long-term study
Description: All procedures were carried out in accordance with NIH Guidelines with the approval of Children's Hospital Animal Care and Use Committee. Unilateral in-farcts were induced in the sensorimotor cortex of adult Sprague-Dawley rats (275-300 g; Charles River Laboratories, Wilmington, Mass.) using the photothrombotic model of focal ischemia (Markgraf et al., 1993). Briefly, rats were anesthetized with a combination of ketamine (75 mg/kg) and Domitor (medetomidine; 0.5 mg/kg) and a 15 mm skin incision was made at the midline rostral to the posterior suture. A craniotomy was performed over the sensorimotor cortex using a hand-held drill to open a window that spanned medio-laterally between the sagittal sinus and temporal ridge, and rostro-caudally between Bregma +2.5 mm and Bregma −3.5 mm. The photosensitive dye Rose Bengal was injected into the femoral vein, and a fiber-optic cable connected to a xenon light source was centered over the craniotomy, focusing light directly on the exposed region of the brain for 30 minutes. A green filter fitted over the bulb restricted illumination to ˜525 nm, a wavelength that excites Rose Bengal and causes it to release free radical species. The subsequent damage to endothelial cells in exposed portions of the cortical vasculature causes platelet aggregation, resulting in severe focal ischemia. […] Control animals were generated using the same surgical procedure but without photo-activation of Rose Bengal. Animals with strokes were randomly assigned to receive a continuous infusion of either saline (0.9%, Baxter Scientific; n=12), inosine (50 mM in saline, Sigma-Aldrich Co., St. Louis, Mo.; n=12), NEP1-40 (500 μM in 2.5% DMSO/97.5% saline; n=12), or inosine +NEP1-40 (n=12) into the cisterna magna using osmotic minipumps (0.25 μl/h, Alzet model 2004, Durect Corpora-tion, Palo Alto, Calif.). In addition to these, a separate set of animals with the same 4 groups (n=12 in each) was created for a long-term behavioral study. Because CSF drug concentrations presumably require several hours to achieve steady-state levels when delivered via slow-releasing osmotic pumps, all animals received a 25 μl intraventricular bolus of the appropriate agent prior to pump placement. Pumps were tucked between the shoulder blades and infusion needles were secured onto the cranium with a silicon-based glue. The incision was closed with silk sutures and cleaned with betadine and ethanol pads. For 72 hours following surgery, animals received twice-daily, subcu-taneous injections of Buprenex (buprenorphine; Reckitt Benkiser Pharmaceuticals Inc., Richmond, Va.) for pain management.
In animals in which both behavioral testing and anatomical tracing was performed, animals were tested at 7, 14, 21, and 28 days after surgery, whereas in the long-term behavioral study, minipumps were removed after 4 weeks and testing was continued weekly for another 4 weeks. All testing was done by an experimenter blind to the animals' treatments. A skilled forelimb-reaching task was used to test functional recovery after stroke. The task requires the rat to reach with either paw through a narrow slit in a Plexiglas box, grasp a banana-flavored food pellet (Bio-Serv, Inc., Frenchtown, N.J.) from a platform, and bring it successfully to the mouth (Allred and Jones, 2004; Luke et al., 2004). Three days prior to and during training, animals were maintained on a restricted diet of banana-flavored pellets to remove novelty-induced hesitation and to increase motivation. Rats were trained 30-60 minutes per day with each paw for two weeks or until they reached a baseline performance of 20-30 successful reaches in a two-minute period. At the end of the training period but prior to surgery, each animal was tested for the number of pellets it successfully grasped and ate in a two-minute trial, making certain that animals were motivated and stress-free. […]

OC[C@H]1O[C@@H](n2cnc3c(O)ncnc32)[C@H](O)[C@@H]1O [inosine]
Caspase-3 profiles (activated caspase-3): 11.9±1.5
lesion size (mean±S.E.M) [1]: 81.1±8.6 pixels
food pellet retrieval with impaired paw, outcome in words ([2]; 4-week study): superior to that of controls at 1 week
food pellet retrieval with impaired paw, outcome in words ([2]; eight-week (long-term) study): significantly better than that of saline-treated controls from week 2 on
food pellet retrieval with impaired paw, outcome in words ([2]; eight-week (long-term) study, listed as Inosine): strongly enhanced the effect of NEP1-40
food pellet retrieval with impaired paw, % of baseline ([2]; week eight (4 weeks after pump removal)): ~80%
food pellet retrieval with impaired paw, % of baseline ([2]; week four): ~70%
performance with the unaffected (unimpaired) paw ([2]; paw ipsilateral to the stroke): performed normally; also recorded: No differences were detected
food pellet retrieval with impaired paw, percentage of baseline (pre-operative) level ([2]; week 4 after stroke, 4-week study): approximately 80%
